# Assay results from patent US4064254A, “Substituted piperidines therapeutic process and compositions” (Mead Johnson & Company, priority 1976, dated 1977).
# Legend:
# [1] = system: aconitine induced arrhythmia in the dog; test: aconitine induced atrial arrhythmia in the anesthetized dog, intravenous; assay type: in vivo; details: Canis lupus familiaris, read-out: effective dose restoring normal cardiac rhythm, aconitine induced arrhythmia
# From the text: (§1) The chest of an anesthetized dog is opened in the midline and the right and left atrial appendages exposed through small slits in the pericardium. Bypolar recording electrodes are affixed to the atrial surfaces and a 4 × 4 mm. piece of clean cloth is fixed to the surface of the right auricular appendage. Control recordings are made of various heart functions including femoral arterial blood pressure and right and left atrial electrograms. Atrial arrhythmia is then induced by placing 3-5 drops of a solution of aconitine on the cloth which is fixed to the right atrium. […] Throughout the experiment, fresh aconitine is (2-3 drops) placed on the cloth at 10 minute intervals.
# [2] = system: electrically induced arrhythmia in the dog; test: electrically induced arrhythmia in the dog; assay type: in vivo; details: Canis lupus familiaris, iv
# [3] = system: aconitine induced arrhythmia in the dog; test: prevention of aconitine induced arrhythmia in the dog, intraduodenal administration; assay type: in vivo; details: Canis lupus familiaris, read-out: effective dose in the prevention of aconitine induced arrhythmia
# From the text: as §1
# [4] = system: chloroform induced arrhythmia in the mouse; test: inhibition of chloroform induced arrhythmia in the mouse (Lawson); assay type: in vivo; details: ip, intraperitoneal, read-out: ED50, prevention of chloroform induced arrhythmia
# From the text: Another in vivo test involves the inhibition of chloroform induced arrhythmia in the mouse according to the method of J. W. Lawson, J. Pharmacol. Exp. Therap., 160, 22 (1968).
# rabbit atrium = test: in vitro rabbit atrium test (refractory period); assay type: cell-based; details: Oryctolagus cuniculus; rabbit left atrium, 30° C., stimulated at 30 per minute; read-out: EC50 (50% of maximal increase in refractory period)
# Procedure: In this test, the left atrium is placed in Chenoweth's solution warmed to 30° C. and irrigated with 95% oxygen: 5% carbon dioxide. The lower end of the atrium is attached to a small hook fixed in the bath and the upper end is connected to a transducer to record contractile activity. […] A test compound is introduced into the bath and the test repeated after a 5 minute interval. A dose-response relationship is obtained by additional doses of the test compound. […] This value is designated the EC50.
# serotonin (rat uterus) = test: antiserotonin activity in the rat uterus (spasmogenic effect of serotonin); assay type: cell-based; details: rat uterine horn, 30° C., 0.4 microgram per milliliter of serotonin; read-out: IC50 (decrease of spasmogenic effect of serotonin by 50%)
# Procedure: According to this test one of the uterine horns of a rat uterus is suspended in oxygenated salt solution at 30° C. The contractions of this tissue are then recorded and varying concentrations of the test compound introduced into the bath in order to determine the concentration that would decrease the spasmogenic effect of 0.4 microgram per milliliter of serotonin by 50%. This value is designated the IC50.
# [5] = system: serotonin in the brain in mice; test: antiserotonin activity in mice, 5-hydroxytryptophan / monoamine oxidase inhibitor (Corne); assay type: in vivo; details: Mus musculus
# From the text: This test is dependent on the metabolism of 5-hydroxytryptophan to serotonin in the brain in mice which are pretreated with a monamine oxidase inhibitor.
Structure (SMILES),minimal effective dose [1] [mg/kg],minimal effective dose [2] [mg/kg],minimal effective dose [3] [mg/kg],ED50 [4] [mg/kg],EC50 (rabbit atrium) [µg/mL],IC50 (serotonin (rat uterus)) [µg/mL],"ED50 ([5]; ip, 1 h, intraperitoneal, 60 minute pretreatment) [mg/kg]","ED50 ([5]; sc, 0.5 h, subcutaneous, 30 minute pretreatment) [mg/kg]","ED50 ([5]; sc, 1 h, subcutaneous, 60 minute pretreatment) [mg/kg]"
COc1ccc(C(=O)Nc2ccccc2CCC2CCCCN2C)cc1 (centres unmarked) [4-methoxy-2'-[2-(1-methyl-2-piperidyl)ethyl]benzanilide],0.8,1.9,< 10,7.1,2.4,0.0046,–,–,–
CN1CCCCC1CCc1ccccc1NC(=O)C=Cc1ccccc1 (centres unmarked) [2'-[2-(1-Methyl-2-piperidyl)ethyl]-cinnamanilide],–,–,–,–,–,0.00185,21,4.3,10
"CN1CCCCC1CCc1ccccc1N (centres unmarked) [2-(o-Aminophenethyl)-1-methylpiperidine, 2-(O-Aminophenethyl)-1-methylpiperidine]",–,–,–,–,44,–,–,–,–
"C=C[C@H]1C[N@@]2CC[C@H]1C[C@@H]2[C@@H](O)c1ccnc2ccc(OC)cc12 [quinidine, reference compound]",6,14,> 14,83,18,–,–,–,–
"CCN(CC)C(=O)[C@@H]1C=C2c3cccc4[nH]cc(c34)C[C@H]2N(C)C1 [lysergide, reference compound]",–,–,–,–,–,0.012,–,–,–
